Source: patent US11759462B2, “Spirocyclic compounds as tryptophan hydroxylase inhibitors” (priority 2013, dated 2023)
pIC50: −log10 of the molar value. Like-named read-outs stand apart in the source and are kept apart here.

Biological target: T1, Recombinant human TPH1 (MBP tagged) (Homo sapiens, UniProt P17752)
T1 construct: cloning full length human TPH1 cDNA in to a bacterial pMAL-c5E expression vector; made in house; host or cells: E. coli BL21 (DE3)
T1 sequence (P17752 1-444): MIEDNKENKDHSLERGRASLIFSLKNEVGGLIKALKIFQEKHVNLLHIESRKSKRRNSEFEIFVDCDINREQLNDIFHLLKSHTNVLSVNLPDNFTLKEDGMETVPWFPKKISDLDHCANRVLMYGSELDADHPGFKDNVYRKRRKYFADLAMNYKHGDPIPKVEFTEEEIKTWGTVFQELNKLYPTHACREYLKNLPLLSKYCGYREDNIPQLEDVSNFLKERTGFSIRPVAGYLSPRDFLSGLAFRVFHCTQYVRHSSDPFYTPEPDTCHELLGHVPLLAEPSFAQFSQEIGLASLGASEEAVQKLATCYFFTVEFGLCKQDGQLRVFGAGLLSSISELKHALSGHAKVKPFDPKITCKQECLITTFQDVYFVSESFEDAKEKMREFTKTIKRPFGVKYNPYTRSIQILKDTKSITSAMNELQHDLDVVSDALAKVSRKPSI
Experiment: TPH1 in vitro inhibition assay (kinetic fluorescence)
Assay type: biochemical
Description: Recombinant human TPH1 (rTPH1 GenBank™ accession no. NP_004179) was expressed by cloning full length human TPH1 cDNA in to a bacterial pMAL-c5E expression vector to produce maltose-binding protein (MBP) TPH1 fusion proteins. E. coli BL21 (DE3) containing pMAL-c5E-TPH1 was used for protein generation and the recombinant protein was purified utilizing standard column chromatography techniques. The MBP tagged TPH1 (MBP-TPH1) was used directly to screen compounds as described below. Recombinant human TPH2 (rTPH2 GenBank™ accession no. 173353), PheOH (rPheOH GenBank™ accession no. K03020) and TH (rTH GenBank™ accession no. L20679) with an MBP tag were produced similarly.
TPH1 activities were measured in an assay containing 200 mM ammonium sulfate, 7 mM DTT, 50 μg/mL catalase, 25 μM ammonium iron sulfate, 50 mM MES, pH 7.1. Test compounds were diluted in 100% DMSO and added to the assay plate in 1 μL aliquots at 100× final concentration. Fifty microliters of assay buffer containing 30 nM TPH1 enzyme (MBP tagged) were added to the plate wells containing the test compound by the use of an Eppendorf repeater pipette. The reaction was initiated by the addition of 50 μL of assay buffer containing 60 μM tryptophan and 72 μM 6-6-methyltetra-hydropterin (2× final concentration) by the use of a Multidrop (LabSystems). Final reaction conditions were 15 nM TPH1 enzyme, 30 μM tryptophan, 36 μM 6-methyltetra-hydropterin, 200 mM ammonium sulfate, 7 mM DTT, […], 25 μM ferrous ammonium sulfate, 50 mM MES, pH 7.1, with atmospheric oxygen at room temperature. The plate was immediately placed onto an M5 plate reader (Molecular Devices) for kinetic fluorescence measurement using an excitation setting of 300 nm and an emission setting of 335 nm. Fluorescence reads are recorded in kinetic mode for 300 seconds (5 minutes).
Kinetic assay data for compounds at specific concentrations was translated into slopes using the Softmax Pro software on a Spectramax reader, and compound inhibition slopes were compared with wells containing enzyme, substrate and cofactor in the absence of inhibitor (100%), and wells containing substrate and cofactor in the absence of enzyme (0%). DMSO concentration in the assay was 1%. […] IC50's were determined using Graphpad Prism.

[1] = read-out: TPH1 Range (TPH1 inhibition IC50)

`Cc1ccn(-c2cc(-c3ccc([S+](C)[O-])cc3)ccc2[C@@H](Oc2cc(N3CCC4(CC3)CN[C@H](C(=O)O)C4)nc(N)n2)C(F)(F)F)n1` (stereo partly drawn) [Example 1a, (3S)-8-(2-amino-6-((1R)-2,2,2-trifluoro-1-(3-(3-methyl-1H-pyrazol-1-yl)-4′-(methylsulfinyl)-[1,1′-biphenyl]-4-yl)ethoxy)pyrimidin-4-yl)-2,8-diazaspiro[4.5]decane-3-carboxylic acid] was tested. Which pIC50 [1] did it give?
The pIC50 was greater than 7.30.

`Cc1ccn(-c2cc(-c3ccc(CN)cc3)ccc2[C@@H](Oc2cc(N3CCC4(CC3)CN[C@H](C(=O)O)C4)nc(N)n2)C(F)(F)F)n1` [Example 1ab, (S)-8-(2-amino-6-((R)-1-(4′-(aminomethyl)-3-(3-methyl-1H-pyrazol-1-yl)-[1,1′-biphenyl]-4-yl)-2,2,2-trifluoroethoxy)pyrimidin-4-yl)-2,8-diazaspiro[4.5]decane-3-carboxylic acid] was tested. Which pIC50 [1] did it give?
Its pIC50 is greater than 7.30.

With `Cc1ccn(-c2cc(-c3cccc(F)c3)ccc2[C@@H](Oc2cc(N3CCC4(CC3)CN[C@H](C(=O)O)C4)nc(N)n2)C(F)(F)F)n1` [Example 1ac, (S)-8-(2-amino-6-((R)-2,2,2-trifluoro-1-(3′-fluoro-3-(3-methyl-1H-pyrazol-1-yl)-[1,1′-biphenyl]-4-yl)ethoxy)pyrimidin-4-yl)-2,8-diazaspiro[4.5]decane-3-carboxylic acid] as the compound, how does the pIC50 [1] read?
The pIC50 was greater than 7.30.

With `Cc1ccn(-c2cc(-c3ccc4ncccc4c3)ccc2[C@@H](Oc2cc(N3CCC4(CC3)CN[C@H](C(=O)O)C4)nc(N)n2)C(F)(F)F)n1` [Example 1ad, (S)-8-(2-amino-6-((R)-2,2,2-trifluoro-1-(2-(3-methyl-1H-pyrazol-1-yl)-4-(quinolin-6-yl)phenyl)ethoxy)pyrimidin-4-yl)-2,8-diazaspiro[4.5]decane-3-carboxylic acid] as the compound, how does the pIC50 [1] read?
The pIC50 was greater than 7.30.

With `Cc1ccc(-c2ccc([C@@H](Oc3cc(N4CCC5(CC4)CN[C@H](C(=O)O)C5)nc(N)n3)C(F)(F)F)c(-n3ccc(C)n3)c2)cc1` [Example 1ae, (S)-8-(2-amino-6-((R)-2,2,2-trifluoro-1-(4′-methyl-3-(3-methyl-1H-pyrazol-1-yl)-[1,1′-biphenyl]-4-yl)ethoxy)pyrimidin-4-yl)-2,8-diazaspiro[4.5]decane-3-carboxylic acid] as the compound, how does the pIC50 [1] read?
Its pIC50 is greater than 7.30.

With `Cc1ccn(-c2cc(-c3ccc(Cl)c(Cl)c3)ccc2[C@@H](Oc2cc(N3CCC4(CC3)CN[C@H](C(=O)O)C4)nc(N)n2)C(F)(F)F)n1` [Example 1af, (S)-8-(2-amino-6-((R)-1-(3′,4′-dichloro-3-(3-methyl-1H-pyrazol-1-yl)-[1,1′-biphenyl]-4-yl)-2,2,2-trifluoroethoxy)pyrimidin-4-yl)-2,8-diazaspiro[4.5]decane-3-carboxylic acid] as the compound, how does the pIC50 (TPH1 Range (TPH1 inhibition IC50)) read?
The pIC50 was greater than 7.30.

How did the pIC50 [1] turn out when `Cc1ccn(-c2cc(-c3ccc(F)c(F)c3)ccc2[C@@H](Oc2cc(N3CCC4(CC3)CN[C@H](C(=O)O)C4)nc(N)n2)C(F)(F)F)n1` [Example 1ag, (S)-8-(2-amino-6-((R)-1-(3′,4′-difluoro-3-(3-methyl-1H-pyrazol-1-yl)-[1,1′-biphenyl]-4-yl)-2,2,2-trifluoroethoxy)pyrimidin-4-yl)-2,8-diazaspiro[4.5]decane-3-carboxylic acid] was run?
The pIC50 was greater than 7.30.

How did the pIC50 [1] turn out when `Cc1ccn(-c2cc(-c3ccc(Cl)cc3)ccc2[C@@H](Oc2cc(N3CCC4(CC3)CN[C@H](C(=O)O)C4)nc(N)n2)C(F)(F)F)n1` [Example 1ah, (S)-8-(2-amino-6-((R)-1-(4′-chloro-3-(3-methyl-1H-pyrazol-1-yl)-[1,1′-biphenyl]-4-yl)-2,2,2-trifluoroethoxy)pyrimidin-4-yl)-2,8-diazaspiro[4.5]decane-3-carboxylic acid] was run?
The pIC50 was greater than 7.30.

`Cc1ccn(-c2cc(-c3cncnc3)ccc2[C@@H](Oc2cc(N3CCC4(CC3)CN[C@H](C(=O)O)C4)nc(N)n2)C(F)(F)F)n1` [Example 1ai, (S)-8-(2-amino-6-((R)-2,2,2-trifluoro-1-(2-(3-methyl-1H-pyrazol-1-yl)-4-(pyrimidin-5-yl)phenyl)ethoxy)pyrimidin-4-yl)-2,8-diazaspiro[4.5]decane-3-carboxylic acid] was tested. Which pIC50 [1] did it give?
The pIC50 was greater than 7.30.

How did the pIC50 [1] turn out when `Cc1ccn(-c2cc(-c3cc(Cl)cc(C(F)(F)F)c3)ccc2[C@@H](Oc2cc(N3CCC4(CC3)CN[C@H](C(=O)O)C4)nc(N)n2)C(F)(F)F)n1` [Example 1ak, (S)-8-(2-amino-6-((R)-1-(3′-chloro-3-(3-methyl-1H-pyrazol-1-yl)-5′-(trifluoromethyl)-[1,1′-biphenyl]-4-yl)-2,2,2-trifluoroethoxy)pyrimidin-4-yl)-2,8-diazaspiro[4.5]decane-3-carboxylic acid] was run?
Its pIC50 is 6.52 to 7.30.

`CCOc1ccc(-c2ccc([C@@H](Oc3cc(N4CCC5(CC4)CN[C@H](C(=O)O)C5)nc(N)n3)C(F)(F)F)c(-n3ccc(C)n3)c2)cc1Cl` [Example 1al, (S)-8-(2-amino-6-((R)-1-(3′-chloro-4′-ethoxy-3-(3-methyl-1H-pyrazol-1-yl)-[1,1′-biphenyl]-4-yl)-2,2,2-trifluoroethoxy)pyrimidin-4-yl)-2,8-diazaspiro[4.5]decane-3-carboxylic acid] was tested. Which pIC50 [1] did it give?
Its pIC50 is greater than 7.30.

With `Cc1ccn(-c2cc(-c3cccc(C(F)(F)F)c3)ccc2[C@@H](Oc2cc(N3CCC4(CC3)CN[C@H](C(=O)O)C4)nc(N)n2)C(F)(F)F)n1` [Example 1am, (S)-8-(2-amino-6-((R)-2,2,2-trifluoro-1-(3-(3-methyl-1H-pyrazol-1-yl)-3′-(trifluoromethyl)-[1,1′-biphenyl]-4-yl)ethoxy)pyrimidin-4-yl)-2,8-diazaspiro[4.5]decane-3-carboxylic acid] as the compound, how does the pIC50 [1] read?
Its pIC50 is greater than 7.30.

How did the pIC50 [1] turn out when `Cc1cc(Cl)cc(-c2ccc([C@@H](Oc3cc(N4CCC5(CC4)CN[C@H](C(=O)O)C5)nc(N)n3)C(F)(F)F)c(-n3ccc(C)n3)c2)c1` [Example 1an, (S)-8-(2-amino-6-((R)-1-(3′-chloro-5′-methyl-3-(3-methyl-1H-pyrazol-1-yl)-[1,1′-biphenyl]-4-yl)-2,2,2-trifluoroethoxy)pyrimidin-4-yl)-2,8-diazaspiro[4.5]decane-3-carboxylic acid] was run?
The pIC50 was greater than 7.30.

With `Cc1ccn(-c2cc(-c3ccc(Cl)c(F)c3)ccc2[C@@H](Oc2cc(N3CCC4(CC3)CN[C@H](C(=O)O)C4)nc(N)n2)C(F)(F)F)n1` [Example 1ao, (S)-8-(2-amino-6-((R)-1-(4′-chloro-3′-fluoro-3-(3-methyl-1H-pyrazol-1-yl)-[1,1′-biphenyl]-4-yl)-2,2,2-trifluoroethoxy)pyrimidin-4-yl)-2,8-diazaspiro[4.5]decane-3-carboxylic acid] as the compound, how does the pIC50 [1] read?
Its pIC50 is greater than 7.30.

How did the pIC50 [1] turn out when `CCOc1cccc(-c2ccc([C@@H](Oc3cc(N4CCC5(CC4)CN[C@H](C(=O)O)C5)nc(N)n3)C(F)(F)F)c(-n3ccc(C)n3)c2)c1` [Example 1ap, (S)-8-(2-amino-6-((R)-1-(3′-ethoxy-3-(3-methyl-1H-pyrazol-1-yl)-[1,1′-biphenyl]-4-yl)-2,2,2-trifluoroethoxy)pyrimidin-4-yl)-2,8-diazaspiro[4.5]decane-3-carboxylic acid] was run?
Its pIC50 is greater than 7.30.

With `Cc1ccn(-c2cc(-c3ccc(C)c(F)c3)ccc2[C@@H](Oc2cc(N3CCC4(CC3)CN[C@H](C(=O)O)C4)nc(N)n2)C(F)(F)F)n1` [Example 1aq, (S)-8-(2-amino-6-((R)-2,2,2-trifluoro-1-(3′-fluoro-4′-methyl-3-(3-methyl-1H-pyrazol-1-yl)-[1,1′-biphenyl]-4-yl)ethoxy)pyrimidin-4-yl)-2,8-diazaspiro[4.5]decane-3-carboxylic acid] as the compound, how does the pIC50 [1] read?
The pIC50 was 6.52 to 7.30.
